Experimental data: patent US9522930B2, “Chartreusin analogues” (Leibniz-Institut Für Naturstoff-Forschung Und …, priority 2012, dated 2016)
In brackets after ≈: the same amount, converted by molar mass. Where two headings read alike, the source gives them in different places.

Assays:
[1] = tested on: human umbilical vein endothelial cells HUVEC (ATCC CRL-1730); experiment: Growth inhibition (antiproliferative effect) of HUVEC; type: cell-based; conditions: for GI50: Homo sapiens, read-out: antiproliferative GI50, HUVEC
Protocol: (§2) Compounds were assayed against human umbilical vein endothelial cells HUVEC (ATCC CRL-1730) and human chronic myeloid leukemia cells K-562 (DSM ACC 10) for their antiproliferative effects (GI50) and against human cervix carcinoma cells HeLa (DSM ACC 57) for their cytotoxic effects (CC50) as previously described (Scherlach, K., Partida-Martinez, L. P., Dahse, H. M. & Hertweck, C. Antimitotic rhizoxin derivatives from a cultured bacterial endosymbiont of the rice pathogenic fungus Rhizopus microsporus. Journal of the American Chemical Society 128, 11529-11536 (2006)).

[2] = tested on: vancomycin-resistant Enterococcus (VRE); experiment: VRE assay (MIC); type: cell-based; conditions: read-out: MIC against VRE
in vitro = conditions: human
Protocol: as §2

[3] = tested on: human HT-29 colon adenocarcinoma cells (ACC 299); experiment: Growth inhibition of HT-29 in the presence or absence of light; type: cell-based
Protocol: (§1) The human HT-29 colon adenocarcinoma cells (ACC 299) and the human MEL-HO (ACC 62) melanoma cells were grown as previously described (Ueberschaar, N.; Dahse, H.-M.; Bretschneider, T.; Hertweck, C. Angew. Chem. Int. Ed. 2013, 52, 6185-6189).

[4] = tested on: human chronic myeloid leukemia cells K-562 (DSM ACC 10); experiment: Growth inhibition (antiproliferative effect) of K-562; type: cell-based; conditions: for GI50: Homo sapiens, K562, read-out: antiproliferative GI50, K-562
Protocol: as §2

[5] = tested on: human MEL-HO (ACC 62) melanoma cells; experiment: Growth inhibition of MEL-HO in the presence or absence of light; type: cell-based
Protocol: as §1

[6] = tested on: Mycobacterium vaccae 10670; experiment: Antimicrobial activity (MIC), test strain Mycobacterium vaccae 10670; type: cell-based; conditions: Mycolicibacterium vaccae; Test strain: Mycobacterium vaccae 10670; read-out: Antimicrobial MIC value, Mycobacterium vaccae
Text: Antimicrobial (MIC value [μM]), cytotoxic (CC50 [μM] for HeLa) and antiproliferative (GI50 [μM] for HUVEC, K-562, HT-29 and MEL-HO) activities of chartreusin and its derivatives. Test strain: Mycobacterium vaccae 10670.

[7] = tested on: Hs27 foreskin fibroblast cells (ATCC, CRL-1634); experiment: Growth inhibition of Hs27 in the presence or absence of light; type: cell-based, human; conditions: for GI50: Homo sapiens, 72 hours
Text: In order to verify the extraordinary in vitro photo induced activity a human foreskin fibroblast cell line (Hs27) has been chosen to evaluate the antiproliferative activity against human cells. During this assay a control group without light has been tested under standard conditions. One group was irradiated with a very homogenous LED cluster under the same conditions. […] This indicates the high potential of this new chartreusin-like structure motive as a drug for epithel cell carcinomas. Not only superficial areas like the skin in case of melanoma can be irradiated also endoscopic accessible areas like the bladder, colon, esophageal or laryngeal cancers are conceivable for a treatment.
The Hs27 foreskin fibroblast cells (ATCC, CRL-1634) were grown in RPMI 1640 (CAMBREX 12-167F) supplemented with 500 μl/l gentamicin sulfate (Cambrex 17-518Z), 10% heat inactivated fetal bovine serum (PAA A15-104), at 37° C. in plastic flasks (NUNC) in a humidified atmosphere containing 5% CO2.
The adherent cells of Hs27 were harvested at the logarithmic growth phase after soft trypsinization using 0.25% trypsin in PBS containing 0.02% EDTA (Biochrom KG L2163).
Hs27 cells were seeded with 1×10^4 cells per 0.1 mL per well of the 96-well microplates (NUNC 167008). Then, the plates were prepared with dilutions of the compounds.
The influence of the different dilutions of compounds in the absence or presence of light (distance to the cells: 4 cm) were assayed for 72 hours at 37° C. in a humidified atmosphere containing 5% CO2. After incubation time, the effect of compounds in the absence or presence of light were analyzed in compare to negative control.
For this, the adherent Hs27 cells were fixed by glutaraldehyde (MERCK 1.04239.0250) and stained with a 0.05% solution of methylene blue (SERVA 29198) for 15 min. After gentle washing, the stain was eluted by 0.2 mL of 0.33 N HCl in the wells. The optical densities were measured at 660 nm in a microplate reader (Tecan “Sunrise”, Austria). Under the experimental conditions, the signals from the methylene blue are proportional to the number of viable cells.

[8] = tested on: defined DNA fragments (1.5 kb); experiment: Laser-induced DNA-adduct assay, gel electrophoresis with a specified DNA fragment; conditions: 1% agarose gel; for electrophoretic band shift of DNA fragment, irradiated: blue laser 405 nm, 20 mW, 30 sec
Protocol: However, the situation changed substantially under photoinducing conditions. A GaN laser has been used for an induced DNA-adduct assay because a laser warrants high spectral purity combined with a high power density. Furthermore, the emission wavelength (405 nm) fits to the absorption maximum of chartreusin, which is a prerequisite to efficiently activating the molecule.
For the assay defined DNA fragments (1.5 kb) were treated with either chartreusin or 1-vinylchartreusin, and the effect of blue laser irradiation was compared to negative controls incubated in the dark or with daylight.
DNA-Adduct formation was carried out using a pure specified DNA fragment with the following sequence:
8 μL of water, 2 μL of DNA (25.7 ng/μL) were either directly treated with 2 μL loading buffer or were treated additionally with 0.1 μL (1 mg/mL in DMSO) substrate. The solution was irradiated with a laser (405 nm, 20 mW) for 30 sec. and then treated with loading buffer. The DNA was loaded on 1% agarose gel with ethidium bromide operating at 120 V (FIG. 2).

[9] = Cytotoxicity against HeLa; conditions: human, HeLa cells (human cervix carcinoma, DSM ACC 57)
Protocol: as §2

[10] = tested on: human cervix carcinoma cells HeLa (DSM ACC 57); experiment: Cytotoxicity against HeLa; conditions: HeLa, standard conditions
Protocol: as §2

[11] = tested on: methicillin-resistant Staphylococcus aureus (MRSA); experiment: Antibiotic activity against MRSA; type: cell-based
[12] = Homo sapiens, HT-29, 8 h, HT-29, 420 nm, 3 × 8 h, read-out: antiproliferative GI50, HT-29, 420 nm, 3 × 8 h
[13] = Homo sapiens, HT-29, HT-29, w/o light, read-out: antiproliferative GI50, HT-29, w/o light
[14] = Homo sapiens, HT-29, HT-29, with light (blue LED), read-out: GI50 with light, HT-29
[15] = Homo sapiens, HT-29, HT-29, without light (absence of light), read-out: GI50 without light, HT-29
[16] = 8 h, read-out: antiproliferative GI50, Mel-HO, 420 nm, 3 × 8 h
[17] = read-out: antiproliferative GI50, Mel-HO, w/o light
[18] = Hs27, with light vs without light

SMILES	GI50 [1] [µM]	MIC [2] [µM]	GI50 [3, 12] [µM]	GI50 [3, 13] [µM]	GI50 [3, 14] [µM]	GI50 [3, 15] [µM]	GI50 [4] [µM]	GI50 [5, 16] [µM]	GI50 [5, 17] [µM]	MIC [6] [µM]	electrophoretic band shift of DNA fragment, irradiated [8]	further results
CO[C@H]1[C@@H](O)[C@@H](C)O[C@H](O[C@H]2[C@H](Oc3cccc4c(O)c5c(=O)oc6ccc(C)c7c(=O)oc(c34)c5c67)O[C@H](C)[C@H](O)[C@@H]2O)[C@@H]1O [Chartreusin]	6.24	9.59 to 9.76 (≈ 6.14 to 6.25 µg/mL)	7.65	7.96	7.65	7 to 9.4	1.56	2.34	1.56	1.2 (≈ 0.769 µg/mL)	electrophoretic properties of the DNA fragment could be fully reserved	CC50 (in vitro): 12.6 µM; effect of light on antiproliferative activity, Hs27 [7, 18]: not affected by treatment with light
C=Cc1ccc2oc(=O)c3c(O)c4cccc(O[C@@H]5OC(C)[C@H](O)[C@H](O)C5O[C@H]5OC(C)[C@H](O)C(OC)[C@H]5O)c4c4oc(=O)c1c2c34 (stereo partly shown) [Vinylchartreusin, 1-Vinylchartreusin]	32.8	9.59 to 9.76 (≈ 6.26 to 6.37 µg/mL)	0.61	7.05	0.6	7 to 9.4	3.06	0.08	0.11	4.8 (≈ 3.13 µg/mL)	clear band shift to a higher molecular mass	CC50 [9]: 24.7 µM; activity relative to chartreusin and homochartreusin, HeLa [10]: only slightly lower than chartreusin and homochartreusin; less active than chartreusin, HUVEC ([1]; standard conditions (no photoinduction)): about 4 fold; GI50 ([3]; HT-29, without light (absence of light), read-out: GI50 without light, HT-29): 7.1 µM; activity relative to chartreusin and homochartreusin, K562 ([4]; K562, standard conditions): only slightly lower than chartreusin and homochartreusin; GI50 ([7]; light or radiation study, Hs27, irradiated with LED cluster, read-out: GI50 value with light, Hs27): 0.5 µg/mL (≈ 0.766 µM); GI50 ([7]; Hs27, without light, read-out: GI50 value without light, Hs27): 6.8 µg/mL (≈ 10.4 µM); GI50 with light lower than without light, Hs27 [7, 18]: more than 10 fold; electrophoretic band shift of DNA fragment, not irradiated ([8]; not irradiated (dark or daylight)): no shift; antibiotic activity against MRSA relative to chartreusin and ciprofloxacin [11]: as active as the natural product and are even more potent than the reference antibiotic ciprofloxacin
